Assays:
guanylate cyclase [1] = molecular target: T1, guanylate cyclase (Oryctolagus cuniculus, UniProt G1TXB5); assay: rANP activation of membrane-bound guanylate cyclase in purified cerebral microvessels; assay type: biochemical; parameters: tissues were homogenized (10 mg wet weight per milliliter); from tissue; host or cells: rabbit cerebral microvessels, choroid plexus, kidney, ciliary process, pia-arachnoid, cerebellum; 100,000 g P1 pellet; conditions: purified rabbit cerebral microvessels, Fig. 1a
T1 sequence (G1TXB5 28-1056): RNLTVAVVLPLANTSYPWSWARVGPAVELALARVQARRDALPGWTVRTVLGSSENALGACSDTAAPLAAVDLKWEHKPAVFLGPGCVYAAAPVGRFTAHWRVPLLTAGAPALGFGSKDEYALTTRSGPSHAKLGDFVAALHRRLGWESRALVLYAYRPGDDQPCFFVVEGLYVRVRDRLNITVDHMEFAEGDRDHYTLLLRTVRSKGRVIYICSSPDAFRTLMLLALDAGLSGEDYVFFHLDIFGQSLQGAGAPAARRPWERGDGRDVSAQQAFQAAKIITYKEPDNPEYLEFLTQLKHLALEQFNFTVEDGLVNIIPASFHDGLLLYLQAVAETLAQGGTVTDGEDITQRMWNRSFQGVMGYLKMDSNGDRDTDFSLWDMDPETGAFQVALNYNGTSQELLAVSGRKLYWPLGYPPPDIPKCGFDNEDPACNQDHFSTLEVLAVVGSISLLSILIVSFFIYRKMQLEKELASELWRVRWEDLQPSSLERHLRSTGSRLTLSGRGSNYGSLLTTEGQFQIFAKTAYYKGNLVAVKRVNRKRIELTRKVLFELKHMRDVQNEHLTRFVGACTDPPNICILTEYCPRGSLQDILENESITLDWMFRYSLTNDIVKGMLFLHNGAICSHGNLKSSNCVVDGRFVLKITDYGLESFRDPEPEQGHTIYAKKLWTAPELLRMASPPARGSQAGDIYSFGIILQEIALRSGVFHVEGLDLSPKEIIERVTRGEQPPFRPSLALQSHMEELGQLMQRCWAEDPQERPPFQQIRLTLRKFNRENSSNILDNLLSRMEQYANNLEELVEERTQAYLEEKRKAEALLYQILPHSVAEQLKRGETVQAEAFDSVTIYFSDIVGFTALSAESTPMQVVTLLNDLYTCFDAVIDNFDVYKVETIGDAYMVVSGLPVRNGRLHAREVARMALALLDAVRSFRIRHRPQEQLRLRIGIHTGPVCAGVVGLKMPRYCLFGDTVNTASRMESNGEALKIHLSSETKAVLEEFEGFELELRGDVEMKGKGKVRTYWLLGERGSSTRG
Experimental: (§1) The effect of rANP on membrane-bound guanylate cyclase and adenylate cyclase activity in various brain-barrier tissues and tissue fractions from rabbit was compared with its activity in cerebrum and cerebellum. Guanylate cyclase was measured as the rate of cyclic GMP formation by modifications of the technique of Waldman et al., supra, incorporated herein by reference. Briefly, tissues were homogenized (10 mg wet weight per milliliter) in 50 mM tris-HCl, pH 8.0, 1 mM EDTA, 1 mM dithiothreitol, and 250 mM sucrose and centrifuged at 100,000g to obtain a P1 pellet. Reaction tubes contained (in 0.3 ml), 50 mM tris, pH 7.6, 6 mM MnCl₂, 0.5 mM 3-isobutyl, 1-methylxanthine (IBMX), 10 mM theophylline, 3 mM GTP, hormone (in 0.03 ml containing 2.5 mM ascorbic acid and 0.1% bovine serum albumin), and 0.06 ml of P1 fraction (40 to 60 ug of protein). The reaction (4 minutes at 30°C) was started by addition of GTP and terminated by addition of 0.3 ml of 150 mM sodium acetate (pH 4.0) and boiling for 3 minutes. Cyclic GMP formed was subsequently measured by radioimmunoassay as described in example 6, infra. Under these conditions, guanylate cyclase activity was linear with time and tissue concentration. Adenylate cyclase activity in P1 fractions was measured according to the method described by Nathanson, et al., Science; 204:843 (1979); Mol. Pharmacol. 18:199 (1980), see Figure 1C . […] Neurosci. […]

guanylate cyclase [2] = assay: Guanylate cyclase in pia-arachnoid preparation; assay type: biochemical, rabbit
Experimental: as §1

choroid epithelial cells = assay: Intracellular cyclic GMP content of isolated choroid epithelial cells; assay type: cell-based, rabbit; conditions: 5 minutes incubation; 1 uM rANP; PDE inhibitors theophylline (10 mM) and IBMX (0.5 mM)
Experimental: The effect of rANP on membrane-bound guanylate cyclase and adenylate cyclase activity in various brain-barrier tissues and tissue fractions from rabbit was compared with its activity in cerebrum and cerebellum. Guanylate cyclase was measured as the rate of cyclic GMP formation by modifications of the technique of Waldman et al., supra, incorporated herein by reference. Briefly, tissues were homogenized (10 mg wet weight per milliliter) in 50 mM tris-HCl, pH 8.0, 1 mM EDTA, 1 mM dithiothreitol, and 250 mM sucrose and centrifuged at 100,000g to obtain a P1 pellet. […] Cyclic GMP formed was subsequently measured by radioimmunoassay as described in example 6, infra. […] Adenylate cyclase activity in P1 fractions was measured according to the method described by Nathanson, et al., Science; 204:843 (1979); Mol. Pharmacol. 18:199 (1980), see Figure 1C . […]
Purified secretory epithelial cells were isolated and maintained in tissue culture medium in the absence of any hormones. […] More diffuse staining was found only in epithelium and not in vascular or stromal components of choroid epithelial cells as determined by fluorescein optics. […]
For one experiment, the mean ± range is shown for duplicate determinations, each assayed in triplicate for cyclic GMP content. […] After the cells were incubated for 5 minutes, they were killed and their cyclic GMP content was determined. […]

guanylate cyclase [3] = assay: Ciliary process guanylate cyclase activity (Tables 2 and 3); assay type: biochemical

Substance: Ser-Leu-Arg-Arg-atriopeptin III (APIII) [rANP 1-28]
- maximum velocity of enzyme activity (Vmax) (guanylate cyclase [1]): 215 % of control
- degree of enzyme stimulation (guanylate cyclase [2]): 15%
- increase in cyclic GMP content (choroid epithelial cells): more than an eightfold increase
- CILIARY PROCESS GUANYLATE CYCLASE ACTIVITY (Percent Increase) (guanylate cyclase [3]; Table 2, 10⁻⁶M): 60 ± 27 Percent Increase
- CILIARY PROCESS GUANYLATE CYCLASE ACTIVITY (Percent Increase) (guanylate cyclase [3]; Table 3, concentration not given): 74 Percent Increase

— patent EP0583821A1, “Atriopeptins, guanylate cyclase activators, and phosphodiesterase inhibitors as treatment for glaucoma, hydrocephalus and cerebral edema (cranial fluid volume dysfunction)” (THE GENERAL HOSPITAL CORPORATION, priority 1987, dated 1988)
